# Data published in patent EP2030621A1, “Novel substituted pyrimidines as cysteine protease inhibitors” (GLAXO GROUP LIMITED, priority 2007, dated 2009).
# Where a name gives a salt, the structure may show the parent alone.
# System: Plasmodium falciparum parasite
# Experiment: Whole cell assay: whole cell activity against the parasite
# Format: cell-based
# Conditions: Plasmodium falciparum
# Source text: Compounds can be evaluated for whole cell actvity against the Plasmadium falciparum parasite according to the procedure described in Sijwali S. and Rosenthal P. J., (2004) Proceedings of the National Academy of Sciences of the United States of America (PNAS) 101(13), 4384-4389 (see in particular "Measurement of Parasite Growth rates and Inhibitor Sensitivity" on page 4385); IC50 values can be calculated as described in Singh A. and Rosenthal P. J., (2001) Antimicrobial Agents and Chemotherapy 45(3), 949-951 (see in particular page 950, first column); synchronised parasites can be prepared as described in Divo A. A. et al., (1985) Protozool. 32, 59-64. 3) In vitro models to evaluate activity against bone metastasis
row,IC50,SMILES
1,15 to 150 nM,"CN1CCN(C2CCN(Cc3ccc(C(=O)NN(c4nc(C#N)ncc4Br)C4CCN(C(=O)OCc5ccccc5)CC4)cc3)CC2)CC1 [Example 48, Phenylmethyl 4-{1-(5-bromo-2-cyano-4-pyrimidinyl)-2-[(4-{[4-(4-methyl-1-piperazinyl)-1-piperidinyl]methyl}phenyl)carbonyl]hydrazino}-1-piperidinecarboxylate triflouroacetate]"
2,15 to 150 nM,"CC(=O)N1CCC(N(NC(=O)c2ccc(CN3CCC(C(=O)N4CCN(C)CC4)CC3)cc2)c2nc(C#N)ncc2Br)CC1 [Example 49, N'-(1-acetyl-4-piperidinyl)-N'-(5-bromo-2-cyano-4-pyrimidinyl)-4-({4-[(4-methyl-1-piperazinyl)carbonyl]-1-piperidinyl}methyl)benzohydrazide trifluoroacetate]"
3,15 to 150 nM,"CN1CCN(Cc2ccc(C(=O)NN(c3nc(C#N)ncc3Cl)C3CCCCC3)cc2)CC1 [Example 51, N'-(5-chloro-2-cyano-4-pyrimidinyl)-N'-cyclohexyl-4-[(4-methyl-1-piperazinyl)methyl]benzohydrazide trifluoroacetate]"
4,15 to 150 nM,"CN1CCN(c2ccc(C(=O)NN(c3nc(C#N)ncc3Cl)C3CCCC3)cc2)CC1 [Example 52, N'-(5-chloro-2-cyano-4-pyrimidinyl)-N'-cyclopentyl-4-(4-methyl-1-piperazinyl)benzohydrazide trifluoroacetate]"
5,2.5 to 15 nM,"CN(Cc1ccc(C(=O)NN(c2nc(C#N)ncc2Cl)C2CCCC2)cc1)C1CCCCC1 [Example 53, N'-(5-chloro-2-cyano-4-pyrimidinyl)-4-{[cyclohexyl(methyl)amino]methyl}-N'-cyclopentylbenzohydrazide trifluoroacetate]"
6,15 to 150 nM,"CN(C)Cc1ccc(C(=O)NN(c2nc(C#N)ncc2Cl)C2CCCC2)cc1 [Example 54, N'-(5-chloro-2-cyano-4-pyrimidinyl)-N'-cyclopentyl-4-[(dimethylamino)methyl]benzohydrazide trifluoroacetate]"
7,15 to 150 nM,"CCCN(C)Cc1ccc(C(=O)NN(c2nc(C#N)ncc2Cl)C2CCCC2)cc1 [Example 55, N'-(5-chloro-2-cyano-4-pyrlmidinyl)-N'-cycyopentyl-4-{[methyl(propyl)amino]methyl}benzohydrazide trifluoroacetate]"
8,15 to 150 nM,"CCCCCCN(C)Cc1ccc(C(=O)NN(c2nc(C#N)ncc2Cl)C2CCCC2)cc1 [Example 56, N'-(5-chloro-2-cyano-4-pyrimidinyl)-N'-cyclopentyl-4-{[hexyl(methyl)amino]methyl}benzohydrazide trifluoroacetate]"
9,15 to 150 nM,"CCCCN(C)Cc1ccc(C(=O)NN(c2nc(C#N)ncc2Cl)C2CCCC2)cc1 [Example 57, 4-{[butyl(methyl)amino]methyl}-N'-(5-chloro-2-cyano-4-pyrimidinyl)-N'-cyclopentylbenzohydrazide trifluoroacetate]"
10,15 to 150 nM,"CN(CCO)Cc1ccc(C(=O)NN(c2nc(C#N)ncc2Cl)C2CCCC2)cc1 [Example 58, N'-(5-chloro-2-cyano-4-pyrimidinyl)-N'-cyclopentyl-4-{[(2-hydroxyethy)(methyl)amino]methyl}benzohydrazide trifluoroacetate]"
11,15 to 150 nM,"CN(CCC(O)c1ccccc1)Cc1ccc(C(=O)NN(c2nc(C#N)ncc2Cl)C2CCCC2)cc1 (centres unmarked) [Example 59, N'-(5-chloro-2-cyano-4-pyrimidinyl)-N'-cyclopentyl-4-{[(3-hydroxy-3-phenylpropyl)(methyl)amino]methyl}benzohydrazide trifluoroacetate]"
12,15 to 150 nM,"CN(CC(=O)N(C)C)Cc1ccc(C(=O)NN(c2nc(C#N)ncc2Cl)C2CCCC2)cc1 [Example 60, N^2-[(4-{[2-(5-chloro-2-cyano-4-pyrimidinyl)-2-cyclopentylhydrazino]carbonyl}phenyl)methyl]-N^1,N^1,N^2-trimethylglycinamide trifluoroacetate]"
13,15 to 150 nM,"CN(CCC1OCCO1)Cc1ccc(C(=O)NN(c2nc(C#N)ncc2Cl)C2CCCC2)cc1 [Example 61, N'-(5-chloro-2-cyano-4-pyrimidinyl)-N'-cyclopentyl-4-{[[2-(1,3-dioxolan-2-yl)ethyl](methyl)amino]methyl}benzohydrazide trifluoroacetate]"
14,15 to 150 nM,"CN(CCc1ccccc1)Cc1ccc(C(=O)NN(c2nc(C#N)ncc2Cl)C2CCCC2)cc1 [Example 62, N'-(5-chloro-2-cyano-4-pyrimidinyl)-N'-cyclopentyl-4-{[methyl(2-phenylethyl)amino]methyl}benzohydrazide trifluoroacetate]"
15,15 to 150 nM,"CN(CCCc1ccccc1)Cc1ccc(C(=O)NN(c2nc(C#N)ncc2Cl)C2CCCC2)cc1 [Example 64, N'-(5-chloro-2-cyano-4-pyrimidinyl)-N'-cyclopentyl-4-{[methyl(3-phenylpropyl)amino]methyl}benzohydrazide trifluoroacetate]"
16,15 to 150 nM,"CN(Cc1ccc(C(=O)NN(c2nc(C#N)ncc2Cl)C2CCCC2)cc1)C1CCC2(CC1)OCC(C)(C)CO2 [Example 65, N'-(5-chloro-2-cyano-4-pyrimidinyl)-N'-cyclopentyl-4-{[(3,3-dimethyl-1,5-dioxaspiro[5.5]undec-9-yl)(methyl)amino]methyl}benzohydrazide trifluoroacetate]"
17,15 to 150 nM,"CCN(CC)Cc1ccc(C(=O)NN(c2nc(C#N)ncc2Cl)C2CCCC2)cc1 [Example 66, N'-(5-chloro-2-cyano-4-pyrimidinyl)-N'-cyclopentyl-4-[(diethylamino)methyl]benzohydrazide trifluoroacetate]"
18,15 to 150 nM,"CN1CCN(Cc2ccc(C(=O)NN(c3nc(C#N)ncc3Cl)C3CCOCC3)cc2)CC1 [Example 67, N'-(5-chloro-2-cyano-4-pyrimidinyl)-4-[(4-methyl-1-piperazinyl)methyl]-N'-(tetrahydro-2H-pyran-4-yl)benzohydrazide trifluoroacetate]"
19,2.5 to 15 nM,"CCN(Cc1ccc(C(=O)NN(c2nc(C#N)ncc2Cl)C2CCCC2)cc1)C(C)C [Example 68, N'-(5-chloro-2-cyano-4-pyrimidinyl)-N'-cyclopentyl-4-{[ethyl(1-methylethyl)amino]methyl}benzohydrazide trifluoroacetate]"
20,2.5 to 15 nM,"CCN(Cc1ccc(C(=O)NN(c2nc(C#N)ncc2Cl)C2CCCC2)cc1)C1CCCCC1 [Example 69, N'-(5-chloro-2-cyano-4-pyrimidinyl)-4-{[cyclohexyl(ethyl)amino]methyl}-N'-cyclopentylbenzohydrazide trifluoroacetate]"
21,15 to 150 nM,"N#Cc1ncc(Cl)c(N(NC(=O)c2ccc(CN3CCC(O)CC3)cc2)C2CCCC2)n1 [Example 70, N'-(5-chloro-2-cyano-4-pyrimidinyl)-N'-cyclopentyl-4-[(4-hydroxy-1-piperidinyl)methyl]benzohydrazide trifluoroacetate]"
22,15 to 150 nM,"CN(Cc1ccc(C(=O)NN(c2nc(C#N)ncc2Cl)C2CCCC2)cc1)C(C)(C)Cc1ccccc1 [Example 71, N'-(5-chloro-2-cyano-4-pyrimidinyl)-N'-cyclopentyl-4-{[(1,1-dimethyl-2-phenylethyl)(methyl)amino]methyl}benzohydrazide trifluoroacetate]"
23,2.5 to 15 nM,"CC(C)N(Cc1ccc(C(=O)NN(c2nc(C#N)ncc2Cl)C2CCCC2)cc1)C(C)C [Example 72, trifluoroacetate]"
